Test results published in US11208412B2 (DAEGU-GYEONGBUK MEDICAL INNOVATION FOUNDATION, priority 2017, dated 2021).

Experiments:
Experiment in all cases: Kinase selectivity, DiscoverX scanMAX Kinase assay panel (% control)
Assay type in all cases: binding
[1] = target: T1, kinases of the scanMAX Kinase assay panel (Homo sapiens, UniProt O00141); conditions: kinase SGK; 1 uM in DMSO
T1 construct: purchased DiscoverX Co. (contract measurement) scanMAX Kinase assay panel
T1 sequence (O00141 1-431): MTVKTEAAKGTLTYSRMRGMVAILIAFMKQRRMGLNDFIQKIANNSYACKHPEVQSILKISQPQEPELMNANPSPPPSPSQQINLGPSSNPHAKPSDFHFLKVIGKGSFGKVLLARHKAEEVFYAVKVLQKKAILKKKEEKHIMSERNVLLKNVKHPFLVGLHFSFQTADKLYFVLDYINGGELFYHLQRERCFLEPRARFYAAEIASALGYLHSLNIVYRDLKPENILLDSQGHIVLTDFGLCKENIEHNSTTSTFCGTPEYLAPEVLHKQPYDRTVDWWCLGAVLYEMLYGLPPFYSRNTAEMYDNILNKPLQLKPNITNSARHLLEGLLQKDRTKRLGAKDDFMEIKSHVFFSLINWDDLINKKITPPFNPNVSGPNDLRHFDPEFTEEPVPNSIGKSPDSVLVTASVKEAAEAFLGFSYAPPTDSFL
Summary of the method: (§1)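 Percent of control computed as (compound − positive control)/(negative control − positive control) × 100, DMSO defining 100% and positive control 0%. Each panel kinase exposed to 1 uM compound; values under 35% taken to mean the compound acts on that kinase.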

[2] = target: T2, kinases of the scanMAX Kinase assay panel (Homo sapiens, UniProt O15197); conditions: EPHB6; 1 uM
T2 construct: purchased DiscoverX Co. (contract measurement) scanMAX Kinase assay panel
T2 sequence (O15197 32-1021): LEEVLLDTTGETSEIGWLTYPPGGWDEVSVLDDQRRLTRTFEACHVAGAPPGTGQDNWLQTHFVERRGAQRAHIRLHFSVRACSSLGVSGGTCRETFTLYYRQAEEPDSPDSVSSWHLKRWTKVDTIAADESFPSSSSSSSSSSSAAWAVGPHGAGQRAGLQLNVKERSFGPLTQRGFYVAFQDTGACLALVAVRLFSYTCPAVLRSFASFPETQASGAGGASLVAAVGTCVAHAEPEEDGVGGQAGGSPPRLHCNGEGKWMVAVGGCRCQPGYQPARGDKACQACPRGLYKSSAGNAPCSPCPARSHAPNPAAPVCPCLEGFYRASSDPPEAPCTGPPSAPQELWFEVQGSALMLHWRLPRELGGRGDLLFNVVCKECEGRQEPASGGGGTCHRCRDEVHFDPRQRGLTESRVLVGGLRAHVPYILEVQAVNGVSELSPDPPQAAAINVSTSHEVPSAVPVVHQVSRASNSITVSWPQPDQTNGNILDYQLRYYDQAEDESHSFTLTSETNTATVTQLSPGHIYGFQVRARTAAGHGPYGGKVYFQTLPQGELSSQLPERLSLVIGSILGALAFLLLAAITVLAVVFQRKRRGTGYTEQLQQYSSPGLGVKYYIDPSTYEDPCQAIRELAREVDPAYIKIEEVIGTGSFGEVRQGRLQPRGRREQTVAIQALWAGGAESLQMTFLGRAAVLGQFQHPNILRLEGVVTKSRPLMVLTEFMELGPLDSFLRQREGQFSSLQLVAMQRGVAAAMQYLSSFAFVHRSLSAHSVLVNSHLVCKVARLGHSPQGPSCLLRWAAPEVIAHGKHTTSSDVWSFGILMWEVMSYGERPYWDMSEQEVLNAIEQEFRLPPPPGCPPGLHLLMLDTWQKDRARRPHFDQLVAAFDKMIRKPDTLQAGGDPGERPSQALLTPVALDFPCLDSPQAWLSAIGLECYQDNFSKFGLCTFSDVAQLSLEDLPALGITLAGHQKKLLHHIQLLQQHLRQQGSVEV
Summary of the method: as §1

[3] = target: T3, kinases of the scanMAX Kinase assay panel (Homo sapiens, UniProt O75716); conditions: kinase STK16; 1 uM in DMSO
T3 construct: purchased DiscoverX Co. (contract measurement) scanMAX Kinase assay panel
Summary of the method: as §1

[4] = target: T4, kinases of the scanMAX Kinase assay panel (Homo sapiens, UniProt P04049); conditions: RAF1; 1 uM
T4 construct: purchased DiscoverX Co. (contract measurement) scanMAX Kinase assay panel
Summary of the method: as §1

[5] = target: T5, kinases of the scanMAX Kinase assay panel (Homo sapiens, UniProt P07949, V804M); conditions: kinase RET(V804M); 1 uM in DMSO
T5 construct: purchased DiscoverX Co. (contract measurement) scanMAX Kinase assay panel
Summary of the method: as §1

[6] = target: T6, kinases of the scanMAX Kinase assay panel (Homo sapiens, UniProt P42681); conditions: kinase TXK; 1 uM in DMSO
T6 construct: purchased DiscoverX Co. (contract measurement) scanMAX Kinase assay panel
T6 sequence (P42681 1-527): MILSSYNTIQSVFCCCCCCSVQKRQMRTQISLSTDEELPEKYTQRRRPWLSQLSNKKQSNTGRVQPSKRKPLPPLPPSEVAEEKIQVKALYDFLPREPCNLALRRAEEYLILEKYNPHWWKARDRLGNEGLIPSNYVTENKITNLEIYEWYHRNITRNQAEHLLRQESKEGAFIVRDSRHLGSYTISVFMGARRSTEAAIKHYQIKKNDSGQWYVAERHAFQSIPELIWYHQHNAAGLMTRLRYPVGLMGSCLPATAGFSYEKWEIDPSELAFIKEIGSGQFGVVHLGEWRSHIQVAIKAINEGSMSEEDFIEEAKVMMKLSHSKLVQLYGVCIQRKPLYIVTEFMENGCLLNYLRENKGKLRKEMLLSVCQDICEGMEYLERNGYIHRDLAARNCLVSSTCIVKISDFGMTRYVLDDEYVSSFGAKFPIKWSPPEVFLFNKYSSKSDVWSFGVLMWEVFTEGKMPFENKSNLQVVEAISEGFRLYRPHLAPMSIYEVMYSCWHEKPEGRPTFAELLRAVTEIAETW
Summary of the method: as §1

[7] = target: T7, kinases of the scanMAX Kinase assay panel (Homo sapiens, UniProt Q16584); conditions: MLK3; 1 uM
T7 construct: purchased DiscoverX Co. (contract measurement) scanMAX Kinase assay panel
Summary of the method: as §1

[8] = target: T8, kinases of the scanMAX Kinase assay panel (Homo sapiens, UniProt Q92918); conditions: HPK1; 1 uM
T8 construct: purchased DiscoverX Co. (contract measurement) scanMAX Kinase assay panel
Summary of the method: as §1

[9] = target: T9, kinases of the scanMAX Kinase assay panel (Homo sapiens, UniProt Q9Y6M4); conditions: CSNK1G3; 1 uM
T9 construct: purchased DiscoverX Co. (contract measurement) scanMAX Kinase assay panel
Summary of the method: as §1

T9 sequence (Q9Y6M4 whole entry): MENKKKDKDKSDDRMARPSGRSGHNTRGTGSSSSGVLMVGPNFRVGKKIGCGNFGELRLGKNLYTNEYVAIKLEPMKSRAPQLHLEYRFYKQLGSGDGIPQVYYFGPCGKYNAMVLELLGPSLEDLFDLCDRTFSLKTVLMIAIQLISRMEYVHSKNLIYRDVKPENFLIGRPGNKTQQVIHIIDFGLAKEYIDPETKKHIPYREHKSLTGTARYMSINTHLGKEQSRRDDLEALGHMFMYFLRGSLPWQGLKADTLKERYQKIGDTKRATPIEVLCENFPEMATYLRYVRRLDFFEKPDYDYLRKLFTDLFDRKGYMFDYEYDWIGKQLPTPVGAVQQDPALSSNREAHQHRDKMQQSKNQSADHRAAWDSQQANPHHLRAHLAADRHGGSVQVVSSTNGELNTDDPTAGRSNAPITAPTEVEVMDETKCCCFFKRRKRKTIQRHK
T4 sequence (P04049 whole entry): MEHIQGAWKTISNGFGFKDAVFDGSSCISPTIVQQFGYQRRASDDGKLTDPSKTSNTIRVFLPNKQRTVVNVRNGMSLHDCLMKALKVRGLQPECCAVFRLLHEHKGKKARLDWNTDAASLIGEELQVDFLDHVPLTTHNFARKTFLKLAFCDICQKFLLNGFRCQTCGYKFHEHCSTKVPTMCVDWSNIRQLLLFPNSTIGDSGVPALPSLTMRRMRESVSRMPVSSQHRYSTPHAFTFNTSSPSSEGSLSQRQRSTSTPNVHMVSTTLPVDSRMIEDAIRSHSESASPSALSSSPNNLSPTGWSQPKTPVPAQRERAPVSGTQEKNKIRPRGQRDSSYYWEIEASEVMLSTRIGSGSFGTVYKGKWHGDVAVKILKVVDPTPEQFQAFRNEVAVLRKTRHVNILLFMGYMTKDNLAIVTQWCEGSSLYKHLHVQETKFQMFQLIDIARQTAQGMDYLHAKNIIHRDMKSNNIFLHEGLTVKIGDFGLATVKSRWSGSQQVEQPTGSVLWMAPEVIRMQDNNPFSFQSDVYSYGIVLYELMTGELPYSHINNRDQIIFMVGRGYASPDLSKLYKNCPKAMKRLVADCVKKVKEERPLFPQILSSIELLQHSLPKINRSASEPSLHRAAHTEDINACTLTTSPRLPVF
T8 sequence (Q92918 whole entry): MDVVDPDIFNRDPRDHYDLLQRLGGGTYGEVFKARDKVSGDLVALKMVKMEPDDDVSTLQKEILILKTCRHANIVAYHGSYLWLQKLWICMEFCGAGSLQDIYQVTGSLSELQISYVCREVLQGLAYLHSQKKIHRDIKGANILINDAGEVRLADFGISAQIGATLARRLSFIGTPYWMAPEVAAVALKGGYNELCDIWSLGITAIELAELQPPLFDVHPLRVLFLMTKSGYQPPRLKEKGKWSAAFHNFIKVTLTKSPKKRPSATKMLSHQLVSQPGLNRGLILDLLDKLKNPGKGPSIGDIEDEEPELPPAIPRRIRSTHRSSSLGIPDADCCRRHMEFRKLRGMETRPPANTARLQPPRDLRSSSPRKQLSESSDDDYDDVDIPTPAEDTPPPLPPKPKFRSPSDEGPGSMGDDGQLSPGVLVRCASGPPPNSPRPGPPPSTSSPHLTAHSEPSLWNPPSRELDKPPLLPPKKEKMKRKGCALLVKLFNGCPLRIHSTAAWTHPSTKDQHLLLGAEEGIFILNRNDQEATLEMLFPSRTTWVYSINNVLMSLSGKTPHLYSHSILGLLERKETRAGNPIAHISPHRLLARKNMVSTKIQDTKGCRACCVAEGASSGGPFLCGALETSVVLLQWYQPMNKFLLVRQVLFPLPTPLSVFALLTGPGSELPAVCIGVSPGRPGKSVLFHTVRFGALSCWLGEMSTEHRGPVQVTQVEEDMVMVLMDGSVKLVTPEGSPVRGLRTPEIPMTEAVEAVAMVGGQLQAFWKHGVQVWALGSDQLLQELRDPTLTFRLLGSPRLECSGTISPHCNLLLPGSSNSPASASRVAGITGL
T5 sequence (P07949 29-1114 V804M): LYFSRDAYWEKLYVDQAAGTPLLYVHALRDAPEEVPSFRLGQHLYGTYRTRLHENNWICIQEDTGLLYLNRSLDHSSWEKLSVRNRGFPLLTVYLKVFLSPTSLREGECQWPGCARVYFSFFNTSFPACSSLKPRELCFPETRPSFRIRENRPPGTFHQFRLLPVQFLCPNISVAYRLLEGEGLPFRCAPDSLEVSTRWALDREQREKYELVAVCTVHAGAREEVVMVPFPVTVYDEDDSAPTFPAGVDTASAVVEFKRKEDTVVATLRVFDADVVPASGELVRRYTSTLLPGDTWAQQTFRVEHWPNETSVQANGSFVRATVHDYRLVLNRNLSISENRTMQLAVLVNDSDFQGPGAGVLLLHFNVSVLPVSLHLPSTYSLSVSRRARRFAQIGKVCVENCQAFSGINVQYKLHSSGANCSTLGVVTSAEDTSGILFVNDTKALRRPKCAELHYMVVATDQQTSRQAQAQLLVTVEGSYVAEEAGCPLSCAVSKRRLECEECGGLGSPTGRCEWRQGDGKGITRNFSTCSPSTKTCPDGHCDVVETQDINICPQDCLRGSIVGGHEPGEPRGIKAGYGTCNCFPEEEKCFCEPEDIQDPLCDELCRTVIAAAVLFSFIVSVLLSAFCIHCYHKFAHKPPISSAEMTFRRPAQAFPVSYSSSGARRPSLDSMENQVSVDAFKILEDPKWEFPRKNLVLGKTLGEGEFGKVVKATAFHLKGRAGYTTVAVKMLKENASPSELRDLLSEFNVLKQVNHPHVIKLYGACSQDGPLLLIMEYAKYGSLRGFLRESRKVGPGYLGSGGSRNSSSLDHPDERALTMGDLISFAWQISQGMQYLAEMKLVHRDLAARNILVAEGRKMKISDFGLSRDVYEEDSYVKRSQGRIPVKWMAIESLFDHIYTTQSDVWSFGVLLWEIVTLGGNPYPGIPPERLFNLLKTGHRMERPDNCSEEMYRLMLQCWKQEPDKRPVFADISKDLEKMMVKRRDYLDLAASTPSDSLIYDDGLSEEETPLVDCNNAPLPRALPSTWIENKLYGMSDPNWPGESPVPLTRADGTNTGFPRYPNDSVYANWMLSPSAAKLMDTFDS
T7 sequence (Q16584 whole entry): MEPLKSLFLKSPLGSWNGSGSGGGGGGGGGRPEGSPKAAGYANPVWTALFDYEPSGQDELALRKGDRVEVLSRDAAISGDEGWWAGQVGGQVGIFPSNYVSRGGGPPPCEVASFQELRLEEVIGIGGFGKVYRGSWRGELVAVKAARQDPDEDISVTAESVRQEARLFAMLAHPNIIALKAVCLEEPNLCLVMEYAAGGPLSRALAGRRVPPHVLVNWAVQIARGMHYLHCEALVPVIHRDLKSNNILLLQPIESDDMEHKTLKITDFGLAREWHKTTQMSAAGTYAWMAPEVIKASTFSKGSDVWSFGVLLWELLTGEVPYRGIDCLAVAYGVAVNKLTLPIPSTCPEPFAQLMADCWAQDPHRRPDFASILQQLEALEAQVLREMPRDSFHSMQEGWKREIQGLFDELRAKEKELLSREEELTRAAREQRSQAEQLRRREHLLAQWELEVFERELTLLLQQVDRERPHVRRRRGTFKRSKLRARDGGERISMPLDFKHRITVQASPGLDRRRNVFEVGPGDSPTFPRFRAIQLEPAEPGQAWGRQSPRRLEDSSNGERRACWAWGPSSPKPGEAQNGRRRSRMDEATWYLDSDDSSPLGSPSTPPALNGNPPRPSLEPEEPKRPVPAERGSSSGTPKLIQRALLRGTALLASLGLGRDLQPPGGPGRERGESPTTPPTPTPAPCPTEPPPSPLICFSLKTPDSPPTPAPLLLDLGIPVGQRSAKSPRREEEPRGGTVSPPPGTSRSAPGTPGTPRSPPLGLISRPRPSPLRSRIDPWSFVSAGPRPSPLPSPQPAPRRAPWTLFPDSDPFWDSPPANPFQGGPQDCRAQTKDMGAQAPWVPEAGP
T3 sequence (O75716 whole entry): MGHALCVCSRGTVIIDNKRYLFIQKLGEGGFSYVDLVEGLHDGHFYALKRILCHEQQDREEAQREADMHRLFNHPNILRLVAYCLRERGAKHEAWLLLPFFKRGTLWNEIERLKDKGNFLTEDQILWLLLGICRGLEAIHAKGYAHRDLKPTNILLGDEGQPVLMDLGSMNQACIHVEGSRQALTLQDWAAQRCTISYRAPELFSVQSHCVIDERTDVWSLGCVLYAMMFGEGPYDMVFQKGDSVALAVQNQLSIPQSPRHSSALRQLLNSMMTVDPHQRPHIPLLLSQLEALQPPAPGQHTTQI

| SMILES | remaining binding at 1 µM [1] | remaining binding at 1 µM [2] | remaining binding at 1 µM [3] | remaining binding at 1 µM [4] | remaining binding at 1 µM [5] | remaining binding at 1 µM [6] | remaining binding at 1 µM [7] | remaining binding at 1 µM [8] | remaining binding at 1 µM [9] |
| --- | --- | --- | --- | --- | --- | --- | --- | --- | --- |
| CNc1nc(Nc2ccc(C(=O)N3CCOCC3)cc2OC)nc2[nH]cc(C#N)c12 [Example 1, 2-((2-methoxy-4-(morpholine-4-carbonyl)phenyl)amino)-4-(methylamino)-7H-pyrrolo[2,3-d]pyrimidine-5-carbonitrile] | 48% | 84% | 74% | 95% | 89% | 100% | 78% | 79% | 58% |
| CC1(Nc2nc(Nc3cnn([C@H]4CCN(C5COC5)C[C@@H]4F)c3Cl)nc3[nH]cc(C#N)c23)CC1 [Example 52, 2-((5-chloro-1-((3S,4S)-3-fluoro-1-(oxetane-3-yl)piperidine-4-yl)-1H-pyrazole-4-yl)amino)((1-methylcyclopropyl)amino)-7H-pyrrolo[2,3-d]pyrimidine-5-carbonitrile] | 18% | 3.7% | 0.35% | 100% | 0% | 40% | 3.1% | 4.3% | 0.15% |
| CCNc1nc(Nc2ccc(C(=O)N3CCC(N4CCOCC4)CC3)cc2OC)nc2[nH]cc(C(F)(F)F)c12 [Example 104, (4-((4-(ethylamino)-5-(trifluoromethyl)-7H-pyrrolo[2,3-d]pyrimidine-2-yl)amino)-3-methoxyphenyl)(4-morpholinopiperidine-1-yl)methanone] | 100% | 95% | 69% | 100% | 87% | 100% | 86% | 100% | 90% |
